From publication PMC3523701 (Journal of the American Chemical Society, 2012)

Tested on: SRC
Format: binding
Details: competitor against photo-probe labeling, Figure S1

Compound	competition of active site labeling of SRC
CNC(=O)c1cc(Oc2ccc(NC(=O)Nc3cc(C(C)(C)C)nn3-c3ccc4ncccc4c3)c(F)c2)ccn1 [Rebastinib, reference compound]	able to block active site labeling
Cc1ccc(C(=O)Nc2ccc(CN3CCN(C)CC3)c(C(F)(F)F)c2)cc1C#Cc1cnc2cccnn12 [Ponatinib, reference compound]	able to block active site labeling
